Measured values from patent US20180133327A1, “Cell Penetrating Peptides and Complexes Comprising the Same” (Amal Therapeutics SA, priority 2015, published 2018).

Assays:
[1] = test system: BMDC, mo-DCs, EL-4 or K562 cells; assay: In vitro transduction with fluorescein-conjugated ZEBRA CPP truncation constructs (FACS); assay type: cell-based, human and mouse; conditions: for kinetic of transduction (entry into cells): fluorescein-conjugated constructs (ZxxOVACD8FAM), 30 minutes, 2 h or 4 h, acidic wash, FACS
Experimental: Transduction was assessed in cells with high phagocytosis capacity (dendritic cells of human and mice origin) and in cells with poor phagocytosis capacity (T cells from human, K562, or mouse, EL4, origin). Cells were incubated for 30 minutes, 2 h or 4 h with the fluorescein-conjugated constructs (Z13OVACD8FAM, Z14OVACD8FAM, Z15OVACD8FAM or Z18OVACD8FAM) then subjected to a 30s wash with an acidic buffer to remove membrane bound peptide before FACS analysis.
In order to more directly assess the transduction capacities of the selected ZEBRA CPP truncations Z13, Z14, Z15 and Z18 fluorescein-conjugated constructs (Z13OVACD8FAM, Z14OVACD8FAM, Z15OVACD8FAM and Z18OVACD8FAM) were synthesized. To this end, 5-(and-6)-carboxyfluorescein (mixed isomers; e.g. ThermoFisher Scientific catalogue no. C194) was added to each of Z13OVACD8 (SEQ ID NO: 29), Z14OVACD8 (SEQ ID NO: 30), Z15OVACD8 (SEQ ID NO: 31) and Z18OVACD8 (SEQ ID NO: 34).
These fluorescein-conjugated constructs (Z13OVACD8FAM, Z14OVACD8FAM, Z15OVACD8FAM and Z18OVACD8FAM) were tested for their ability to transduce different human and mouse cell types, in particular (i) cells with high phagocytosis capacity, namely dendritic cells (DCs) of human […], and (ii) cells with poor phagocytosis capacity, namely T cells from human, K562, or mouse, EL4, origin). The EL-4 thymoma cell line was maintained in complete RPMI 1640 medium. The K562 cell line was maintained in complete Iscove's modified Dulbecco's medium. BMDC, mo-DCs, EL-4 or K562 cells were incubated for 4 h at 37° C. with the fluorescein-conjugated constructs as described above (Z13OVACD8FAM, Z14OVACD8FAM, Z15OVACD8FAM or Z18OVACD8FAM). For removal of membrane bound peptide prior to cell transduction, a 30s wash with an acidic buffer (0.2 M Glycine, 0.15 M NaCl, pH 3) was performed. Cells were then analyzed by flow cytometry (FACS).

[2] = test system: OVA323-339-specific CD4+ T cells from OT-2 T cell TCR transgenic mice; assay: In vitro epitope presentation assay, MHC class II (BMDCs, proliferation of OT-2 T cells); assay type: cell-based, mouse; conditions: for in vitro proliferation of CD4 T cells (MHC class II presentation): BMDCs loaded 4 h with 300 nM ZxxOVACD8CD4, LPS o.n., 4 days
Experimental: BMDCs were loaded 4 h with 300nM of the different Zebra CPP truncation conjugated to both ovalbumin CD8 and CD4 epitopes (Z13OVACD8CD4, Z15OVACD8CD4 and Z18OVACD8CD4), then washed and incubated o.n. with 100 ng/ml of LPS. Efficient MHC class I or class II-restricted presentation was monitored after 4 days with CFSE-labeled naïve OVA257-264-specific CD8^+T cells from OT-1 T cell receptor (TCR) transgenic mice OT1 cells (A) or CFSE-labeled naïve OVA323-339-specific CD^+T cells from OT-2 T cell TCR transgenic mice respectively. As positive control, BMDCs were pulsed for 1 h with 5 uM peptide. Data from one experiment representative of three independent experiments.
In order to assess the capacity of the ZEBRA CPP truncations to stimulate an integrated immune response including CD4 T cells, antigenic cargoes were produced that included both CD8 and CD4 T cell epitopes from OVA, and conjugated to Z13, Z15 and Z18. Accordingly, the following constructs (Z13OVACD8CD4, Z15OVACD8CD4 and Z18OVACD8CD4) were synthesized:
Processing and presentation of the CD8 and CD4 T cell epitopes were monitored, as described in Example 2 for CD8 T cell epitopes, by measuring the in vitro proliferation of naïve OT-1 T cells (CD8 T cell epitopes; FIG. 4A) and OVA323-339-specific CD4^+ T cells from OT-2 T cell TCR transgenic mice, respectively (FIG. 4B). Briefly, OT-2 T cell TCR transgenic mice express TCR specific for MHC class II restricted OVA323-339.

[3] = test system: self antigen (CD8 epitope from gp100)-specific CD8 T cells; assay: Self antigen-specific CD8 T cell response after vaccination (gp100CD8 restimulation, multimer staining); assay type: in vivo, mice; conditions: 10 nmol ZxxOVACD4gp100CD8 s.c. wk0, wk2, wk9, combined with MPLA or Hiltonol
Experimental: The constructs were tested in combination with Hiltonol (A) and MPLA (B). Briefly, Mice were vaccinated three times (wk0, wk2 and wk9) by s.c. injection (right flank) of 10 nmol of Z13OVACD4gp1 00CD8, Z14OVACD4gp1 00CD8, Z18OVACD4gp100CD8 and i.m. injection of […] of Hiltonol (right hind leg) or s.c. injection of 20 μg of MPLA. One week after the last vaccination, spleen cells were restimulated in vitro for 7 days with gp100CD8 peptide and stained as described in Example 6.
To extend the previous findings to self antigen-specific immune response, Z13, Z14 and Z18 conjugated to antigenic cargo containing a self antigen (CD8 epitope from gp100) and CD4 T cell epitope from OVA were synthesized.
Firstly, those constructs were tested with Hiltonol or MPLA adjuvant. To this end, mice were vaccinated three times (wk0, wk2 and wk9) by s.c. injection (right flank) of 10 nmol of Z13OVACD4gp100CD8, Z14OVACD4gp100CD8, Z18OVACD4gp100CD8 and i.m. injection of 50 μg of Hiltonol (right hind leg) or s.c. injection of 20 μg of MPLA. One week after the last vaccination, spleen cells were restimulated in vitro for 7 days with gp100CD8 peptide and stained as follow. Briefly, for surface staining, after FcR blocking, the following mAb were used: CD4 (RMA4-4), CD8 (53-6.7), CD11b (M1/70), CD19 (6D5), all from BD Biosciences. Dead cells were identified with LIVE/DEAD yellow fluorescent reactive dye (L34959) from Life Technologies and were excluded from analyses. MHC-peptide multimers were from Immudex (Copenhagen, Denmark). Multimer gating strategy used a dump gate (CD4, CD11b, CD19) and excluded dead cells.

| Sequence | kinetic of transduction (entry into cells) [1] | in vitro proliferation of CD4 T cells (MHC class II presentation) [2] | self antigen-specific CD8 T cell immune response [3] | transduction efficacy, all cell types ([1]; fluorescein-conjugated constructs, compared to other ZEBRA CPP truncations) | efficiency of DC transduction and cargo delivery into the MHC class II antigen processing pathway ([2]; ZxxOVACD8CD4, 300 nM, compared with Z13 or Z15) |
| --- | --- | --- | --- | --- | --- |
| KRYKNRVASRKSRAKFKQLLQHYREVAAAKSSENDRLRLLLK [Z13] | rapidly entering in the majority of the cells | proliferation of both CD8 and CD4 T cells occurred | high self antigen-specific CD8 immune response | – | – |
| KRYKNRVASRKSRAKFKQLLQHYREVAAAK [Z14] | rapidly entering in the majority of the cells | – | high self antigen-specific CD8 immune response | – | – |
| REVAAAKSSENDRLRLLLK [Z18] | slower | proliferation of both CD8 and CD4 T cells occurred | did not elicit self antigen-specific CD8 T cell responses | lower transduction efficacy | less efficient |
| KRYKNRVASRKSRAKFK (CPP Z15) [ZEBRA CPP truncation] | slower | proliferation of both CD8 and CD4 T cells occurred | – | – | – |
